According to patent publication US11254702B2, “Thionyl tetrafluoride modified compounds and uses” (The Scripps Research Institute, priority 2016, dated 2022):

Assays:
zebrafish embryos = assay: Zebrafish embryo phenotype after incubation with compound; assay type: in vivo; settings: zebrafish embryos treated at concentrations of 10 and 20 μM; micrographic images (FIG. 14 A, B)
Experimental: FIG. 14 provides micrographic images of zebrafish embryos: (A) and (B) Phenotypes generated by incubating zebrafish embryos with Compound 2-23 at various concentration; (C) Lysates from Compound 2-23 treated or untreated embryos at 24 hpf were reacted with biotin-azide, pull-down with streptavidin beads and analyzed using SDS-PAGE.
FIG. 14 provides micrographic images of zebrafish embryos. Panels (A) and (B) illustrate phenotypes generated by incubating zebrafish embryos with Compound 2-23 at various concentrations. […] Panel (C) provides SDS-PAGE images of lysates from Compound 2-23 treated or untreated embryos at 24 hours post fertilization (hpf). The lysates were treated with biotin-azide and a copper(I) catalyst to react with the terminal alkyne via a copper-catalyzed azide-alkyne Click reaction and thereby attach biotin to any Compound 2-23 that may have been bound to a protein in the lysate. The biotinated lysate was then pulled-down with streptavidin beads and analyzed using SDS-PAGE.

Structure (SMILES)	melting point	phenotypical changes in the embryos (zebrafish embryos)
C#CCOC[C@H]1O[C@@H](n2cc(C)c(=O)[nH]c2=O)C[C@@H]1N=S(=O)(F)N1CCC1 (some centres unmarked)	105 to 106 °C	–
C#Cc1ccc(N=S(=O)(F)N2CCC(=O)CC2)cc1 (centres unmarked)	70 °C	–
C#CCOC[C@H]1O[C@@H](n2cc(C)c(=O)[nH]c2=O)C[C@@H]1N=S(=O)(F)Oc1ccc2c(c1)CC[C@H]1C3CCC(=O)[C@@]3(C)CC[C@H]21 (some centres unmarked)	94 to 95 °C	–
C#CCOC[C@H]1O[C@@H](n2cc(C)c(=O)[nH]c2=O)C[C@H]1N=S(=O)(F)F [Compound 2-23, ((2S,3S,5R)-5-(5-Methyl-2,4-dioxo-3,4-dihydropyrimidin-1(2H)-yl)-2-((prop-2-yn-1-yloxy)methyl)tetrahydrofuran-3-yl)sulfurimidoyl Difluoride]	–	significant phenotypical changes
O=C1[C@@H]([C@H](c2ccccc2)N2CCN(c3ccc(F)cc3)CC2)N=S(=O)(F)N1C1CCCCC1 (stereo partly drawn) [Compound 2-25, (4R)-2-Cyclohexyl-1-fluoro-4-((S)-(4-(4-fluorophenyl)piperazin-1-yl)(phenyl)methyl)-2,4-dihydro-3H-1λ^6,2,5-thiadiazol-3-one 1-oxide]	139 to 140 °C	–
C#Cc1ccc(NS(=O)(=O)NCC(=O)O)cc1 [Compound 4-1, (N-(4-ethynylphenyl)sulfamoyl)glycine]	113 to 115 °C	–
C#Cc1ccc(NS(=O)(=O)N[C@@H](C)C(=O)O)cc1 [Compound 4-2, (N-(4-Ethynylphenyl)sulfamoyl)-L-alanine]	163 to 165 °C	–
C#Cc1ccc(N=S(=O)(F)Oc2ccc(-c3ccccc3)cc2)cc1 (centres unmarked) [Compound 6-1, [1,1′-biphenyl]-4-yl (4-ethynylphenyl)sulfurofluoridoimidate]	94 to 95 °C	–
C#Cc1ccc(N=S(=O)(Oc2ccc(-c3ccccc3)cc2)Oc2ccc(-c3ccccc3)cc2)cc1 [Compound 7-2, Di([1,1′-biphenyl]-4-yl) (4-ethynylphenyl)sulfurimidate]	129 °C	–

Second part, led by results:

melting point	Structure (SMILES)	phenotypical changes in the embryos (zebrafish embryos)
97 to 98 °C	C#Cc1ccc(N=S2(=O)Oc3ccccc3O2)cc1 [Compound 9-1, 2-((4-Ethynylphenyl)imino)-2λ^4-benzo[d][1,3,2]dioxathiole 2-oxide]	–
101 °C	C#Cc1ccc(N=S2(=O)Oc3c(C)ccc(C)c3O2)cc1 [Compound 9-2, 2-((4-Ethynylphenyl)imino)-4,7-dimethyl-2λ^4-benzo[d][1,3,2]dioxathiole 2-oxide]	–
138 to 139 °C	C#Cc1ccc(N=S2(=O)Oc3ccccc3-c3ccccc3O2)cc1 [Compound 9-4, 6-((4-Ethynylphenyl)imino)-6λ^4-dibenzo[d,f][1,3,2]dioxathiepine 6-oxide]	–
93 °C	C#Cc1ccc(N=S(=O)(Oc2ccccc2O)N2CCCCC2)cc1 (centres unmarked) [Compound 10-1, 2-Hydroxyphenyl N-(4-ethynylphenyl)piperidine-1-sulfonimidate]	–
139 to 141 °C	C#Cc1ccc(N=S(=O)(Oc2ccccc2O)N2CCN(C(=O)OC(C)(C)C)CC2)cc1 (stereo not drawn) [Compound 10-2, tert-Butyl 4-(N-(4-ethynylphenyl)-S-(2-hydroxyphenoxy)sulfonimidoyl)piperazine-1-carboxylate]	–
